From article PMC7338687, “Allosteric Coupling Between Drug Binding and the Aromatic Cassette in the Pore Domain of the hERG1 Channel: Implications for a State-Dependent Blockade” (Frontiers in Pharmacology, 2020)
Read-outs that look alike come from different tables or passages of the source.

Assays:
[1] = molecular target: F656C hERG1 (Homo sapiens, UniProt Q12809, F656C); assay: whole-cell patch-clamp of hERG1 tail currents, F656C mutant
Text: (§1) The site-directed mutagenesis methods utilized in this work have been previously reported ([Lees-Miller et al., 2015]; [Wang et al., 2016]). The hERG1 constructs were transfected into mammalian HEK cells. Conventional overlap PCR with primers were synthesized by Sigma Genosys (Oakville, Ontario, Canada) and sequenced by using Eurofins MWG Operon (Huntsville, AL) to create the single- and double-point mutant constructs of hERG1. Following this, XbaI restriction endonuclease was used to linearize and the cRNA was transcribed in vitro using the mMessage mMachine T7 Ultra cRNA transcription kit (Ambion, Austin, TX).
(§2) All experiments were performed under room temperature (295 K). The extracellular solution contained (mM) NaCl 140, KCl 5.4, CaCl2 1, MgCl2 1, HEPES 5, glucose 5.5; the pH of the solution was adjusted and kept at 7.4 with NaOH solution. Micropipettes were pulled from borosilicate glass capillary tubes using a programmable horizontal puller (Sutter Instruments, Novato, CA). […] Tail currents were recorded when the voltage was returned to −100 mV from +50 mV. […] The changes of hERG1 currents during the intracellular dialysis of the drug were monitored each minute right after forming the whole cell configuration. […]

[2] = molecular target: T1, F557L/F656C hERG1 (Homo sapiens, UniProt Q12809, F557L/F656C); assay: whole-cell patch-clamp of hERG1 tail currents, double mutation F557L/F656C; format: cell-based
T1 construct: expressed in transfected cells; host or cells: HEK 293
Text: as §1, §2

[3] = molecular target: T2, hERG1 (Homo sapiens, UniProt Q12809); assay: intracellular application of drug via the patch pipette, hERG1 current; format: cell-based; settings: 100 µM (15-fold greater than extracellular IC50)
T2 construct: expressed in transfected cells; host or cells: HEK 293
Description: All experiments were performed under room temperature (295 K). The extracellular solution contained (mM) NaCl 140, KCl 5.4, CaCl2 1, MgCl2 1, HEPES 5, glucose 5.5; the pH of the solution was adjusted and kept at 7.4 with NaOH solution. Micropipettes were pulled from borosilicate glass capillary tubes using a programmable horizontal puller (Sutter Instruments, Novato, CA). The “intracellular” pipette solution contained the following: 10 mM KCl, 110 mM K-aspartate, 5 mM MgCl2, 5 mM Na2ATP, 10 mM EGTA [ethylene glycol-bis(-aminoethyl ether)-N,N,N,N tetraacetic acid], 5 mM HEPES, and 1mM CaCl2. The internal solution was then adjusted to pH 7.2 with KOH solution. Transfected HEK cells were patched to record the hERG1 currents. Standard patch-clamp methods were used to measure the whole cell currents of hERG1 mutants expressed in HEK 293 cells using the AXOPATCH 200B amplifier (Axon Instruments). Tail currents were recorded when the voltage was returned to −100 mV from +50 mV. Ivabradine was dissolved in Tyrode solution immediately before the experiments and the solutions were used for the next 2 h during the experiments. […] The changes of hERG1 currents during the intracellular dialysis of the drug were monitored each minute right after forming the whole cell configuration.

[4] = molecular target: WT hERG1 (Homo sapiens, UniProt Q12809); assay: cell-based; settings: HEK 293 cells
Text: as §1, §2

[5] = system: M651T hERG1; design: method as in Perissinotti et al., 2019; settings: ref Perissinotti et al., 2019; cited from earlier work
[6] = system: guinea pig myocytes; design: method as in Duff et al., 1995; settings: ref Duff et al., 1995, cited from earlier work

Chain of WT hERG1 (Q12809 whole entry): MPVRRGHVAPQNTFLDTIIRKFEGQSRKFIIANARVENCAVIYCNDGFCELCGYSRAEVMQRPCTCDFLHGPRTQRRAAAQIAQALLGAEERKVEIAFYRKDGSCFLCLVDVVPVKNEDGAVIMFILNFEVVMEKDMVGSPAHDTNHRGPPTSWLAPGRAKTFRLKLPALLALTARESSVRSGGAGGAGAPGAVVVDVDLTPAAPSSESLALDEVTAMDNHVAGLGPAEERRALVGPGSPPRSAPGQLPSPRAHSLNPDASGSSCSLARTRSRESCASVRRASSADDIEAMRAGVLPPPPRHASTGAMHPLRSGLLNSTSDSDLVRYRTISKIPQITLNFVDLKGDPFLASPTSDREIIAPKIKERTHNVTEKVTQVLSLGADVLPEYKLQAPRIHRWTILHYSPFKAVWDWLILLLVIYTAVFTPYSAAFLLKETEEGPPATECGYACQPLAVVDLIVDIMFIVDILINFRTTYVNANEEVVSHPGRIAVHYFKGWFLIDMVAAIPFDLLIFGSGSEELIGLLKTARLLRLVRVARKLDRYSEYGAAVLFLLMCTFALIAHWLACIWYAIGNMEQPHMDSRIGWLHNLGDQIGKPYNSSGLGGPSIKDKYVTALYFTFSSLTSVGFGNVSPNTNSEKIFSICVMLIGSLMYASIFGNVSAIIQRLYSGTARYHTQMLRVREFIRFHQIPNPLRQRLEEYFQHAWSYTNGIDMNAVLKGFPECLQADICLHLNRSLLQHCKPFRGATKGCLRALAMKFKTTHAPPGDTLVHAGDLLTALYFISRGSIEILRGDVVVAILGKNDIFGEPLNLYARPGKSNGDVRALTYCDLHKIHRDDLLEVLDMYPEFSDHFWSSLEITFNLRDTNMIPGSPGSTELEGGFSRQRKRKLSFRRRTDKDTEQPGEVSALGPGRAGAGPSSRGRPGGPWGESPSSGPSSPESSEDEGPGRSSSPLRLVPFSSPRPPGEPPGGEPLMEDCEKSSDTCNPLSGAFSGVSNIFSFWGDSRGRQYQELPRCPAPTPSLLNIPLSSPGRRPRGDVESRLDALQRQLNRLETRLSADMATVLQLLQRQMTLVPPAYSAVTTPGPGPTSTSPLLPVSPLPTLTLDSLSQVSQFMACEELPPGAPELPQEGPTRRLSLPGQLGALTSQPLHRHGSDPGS
T1 sequence (Q12809 whole entry F557L/F656C): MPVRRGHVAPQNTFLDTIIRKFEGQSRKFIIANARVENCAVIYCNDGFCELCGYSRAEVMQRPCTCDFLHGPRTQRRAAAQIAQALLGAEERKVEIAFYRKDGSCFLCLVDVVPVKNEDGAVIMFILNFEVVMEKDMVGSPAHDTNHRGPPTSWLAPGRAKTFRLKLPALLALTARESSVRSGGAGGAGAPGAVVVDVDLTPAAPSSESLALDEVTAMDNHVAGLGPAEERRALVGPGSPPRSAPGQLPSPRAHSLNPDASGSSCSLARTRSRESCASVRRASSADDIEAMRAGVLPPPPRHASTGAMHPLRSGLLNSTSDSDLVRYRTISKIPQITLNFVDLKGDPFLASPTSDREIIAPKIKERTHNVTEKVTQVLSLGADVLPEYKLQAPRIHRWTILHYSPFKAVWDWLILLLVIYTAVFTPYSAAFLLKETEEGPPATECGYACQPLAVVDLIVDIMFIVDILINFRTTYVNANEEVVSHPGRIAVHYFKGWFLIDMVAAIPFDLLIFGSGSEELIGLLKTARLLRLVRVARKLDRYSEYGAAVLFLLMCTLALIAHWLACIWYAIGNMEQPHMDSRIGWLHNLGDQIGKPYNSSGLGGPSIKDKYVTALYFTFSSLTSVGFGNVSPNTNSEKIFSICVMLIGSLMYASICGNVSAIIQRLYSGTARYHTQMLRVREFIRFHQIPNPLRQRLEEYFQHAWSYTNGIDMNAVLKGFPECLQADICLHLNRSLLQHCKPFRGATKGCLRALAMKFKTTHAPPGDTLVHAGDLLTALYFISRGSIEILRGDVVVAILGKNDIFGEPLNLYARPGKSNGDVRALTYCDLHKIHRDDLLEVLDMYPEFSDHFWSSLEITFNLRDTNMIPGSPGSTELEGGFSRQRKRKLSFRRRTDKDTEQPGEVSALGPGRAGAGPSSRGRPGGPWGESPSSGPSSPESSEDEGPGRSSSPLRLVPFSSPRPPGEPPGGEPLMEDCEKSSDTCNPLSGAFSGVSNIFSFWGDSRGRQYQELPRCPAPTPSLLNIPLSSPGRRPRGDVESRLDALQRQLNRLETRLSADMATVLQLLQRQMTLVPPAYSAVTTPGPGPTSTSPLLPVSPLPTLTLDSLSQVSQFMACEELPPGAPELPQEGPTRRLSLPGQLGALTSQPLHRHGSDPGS
T2 sequence (Q12809 whole entry): as the sequence (Q12809 whole entry) above
Chain of F656C hERG1 (Q12809 whole entry F656C): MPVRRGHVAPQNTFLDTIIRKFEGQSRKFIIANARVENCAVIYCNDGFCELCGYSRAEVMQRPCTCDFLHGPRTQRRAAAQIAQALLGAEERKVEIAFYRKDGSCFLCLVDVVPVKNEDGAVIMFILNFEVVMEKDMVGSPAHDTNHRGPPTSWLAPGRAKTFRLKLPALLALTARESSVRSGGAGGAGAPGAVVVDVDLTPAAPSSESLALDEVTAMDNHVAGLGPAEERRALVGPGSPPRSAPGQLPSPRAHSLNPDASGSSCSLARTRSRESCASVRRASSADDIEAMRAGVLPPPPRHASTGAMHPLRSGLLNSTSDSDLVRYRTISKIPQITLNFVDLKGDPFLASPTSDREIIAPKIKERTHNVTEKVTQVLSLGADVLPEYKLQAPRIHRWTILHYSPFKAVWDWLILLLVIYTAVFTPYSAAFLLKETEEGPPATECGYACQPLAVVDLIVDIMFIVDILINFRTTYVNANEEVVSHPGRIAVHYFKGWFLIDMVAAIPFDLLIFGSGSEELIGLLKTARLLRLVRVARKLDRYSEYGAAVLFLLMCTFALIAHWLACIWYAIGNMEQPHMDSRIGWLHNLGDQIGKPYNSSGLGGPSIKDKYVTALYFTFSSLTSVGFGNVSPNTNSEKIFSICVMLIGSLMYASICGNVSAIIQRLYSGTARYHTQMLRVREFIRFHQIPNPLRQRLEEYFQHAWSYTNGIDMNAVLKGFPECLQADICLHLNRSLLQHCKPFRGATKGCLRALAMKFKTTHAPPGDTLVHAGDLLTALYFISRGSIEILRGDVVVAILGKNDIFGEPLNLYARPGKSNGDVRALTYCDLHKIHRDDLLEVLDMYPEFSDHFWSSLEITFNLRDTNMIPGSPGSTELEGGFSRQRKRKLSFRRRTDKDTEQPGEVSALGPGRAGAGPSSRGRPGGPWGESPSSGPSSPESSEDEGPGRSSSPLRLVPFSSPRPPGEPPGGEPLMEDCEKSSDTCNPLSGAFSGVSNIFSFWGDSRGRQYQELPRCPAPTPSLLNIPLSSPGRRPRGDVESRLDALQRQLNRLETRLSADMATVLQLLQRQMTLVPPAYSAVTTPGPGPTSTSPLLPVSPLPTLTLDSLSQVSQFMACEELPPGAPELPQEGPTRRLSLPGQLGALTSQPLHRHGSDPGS

Row | SMILES | IC50 [1] [µM] | block in raw current traces ([2]; F557L/F656C, 100 µM Ivabradine vs control) | blocking ([2]; double mutant F557L/F656C, suprapharmacologic concentrations (dofetilide 20 µM, ivabradine 100 µM)) | block of hERG1 current when applied intracellularly [3] | IC50 ([4]; IC50 for block (Hill fit), WT, Figure 7A) [µM] | IC50 ([4]; IC50 for block of hERG1, WT, applied extracellularly, tail currents, room temperature) [µM] | sensitivity of block to the M651T mutation [5] | IC50 ([6]; read-out: high affinity for binding of dofetilide, high-affinity site) [µM] | IC50 ([6]; read-out: low affinity for binding of dofetilide (low affinity IC50 value), low-affinity site) [µM]
1 | COc1cc2c(cc1OC)CC(=O)N(CCCN(C)C[C@H]1Cc3cc(OC)c(OC)cc31)CC2 [ivabradine] | 45 | no block | ~ 15% | little block | 6.8 | 6.7 | – | – | –
2 | CN(CCOc1ccc(NS(C)(=O)=O)cc1)CCc1ccc(NS(C)(=O)=O)cc1 [dofetilide] | – | – | – | – | – | – | insensitive | 0.1 | 1
